Results: ChEMBL document CHEMBL4831533, “Novel Substituted 1,6-Naphthyridines as CDK 5 Inhibitors for Treating Kidney Diseases” (ACS Med Chem Lett, 2021)

Target: Cyclin-dependent kinase 5/CDK5 activator 1 (Homo sapiens, UniProt Q00535)
Assay: Inhibition of full length human CDK5 (1 to 292 residues)/p25 expressed in baculovirus expression system using FL peptide 29 as a substrate preincubated for 30 mins followed by substrate addition incubated for 60 mins in the presence of ATP by mobility shift assay

Cyclin-dependent kinase 5/CDK5 activator 1, sequence (Q00535 whole entry, the tested form may be a part): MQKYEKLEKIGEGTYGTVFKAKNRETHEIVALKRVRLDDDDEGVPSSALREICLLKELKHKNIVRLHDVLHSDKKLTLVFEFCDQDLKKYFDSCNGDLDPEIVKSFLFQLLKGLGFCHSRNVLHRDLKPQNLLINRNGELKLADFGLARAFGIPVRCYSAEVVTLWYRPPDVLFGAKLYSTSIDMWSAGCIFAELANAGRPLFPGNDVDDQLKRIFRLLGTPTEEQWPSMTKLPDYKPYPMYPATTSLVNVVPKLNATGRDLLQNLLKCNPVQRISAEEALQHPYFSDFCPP
Cyclin-dependent kinase 5/CDK5 activator 1, sequence (Q15078 whole entry, further chain, the tested form may be a part): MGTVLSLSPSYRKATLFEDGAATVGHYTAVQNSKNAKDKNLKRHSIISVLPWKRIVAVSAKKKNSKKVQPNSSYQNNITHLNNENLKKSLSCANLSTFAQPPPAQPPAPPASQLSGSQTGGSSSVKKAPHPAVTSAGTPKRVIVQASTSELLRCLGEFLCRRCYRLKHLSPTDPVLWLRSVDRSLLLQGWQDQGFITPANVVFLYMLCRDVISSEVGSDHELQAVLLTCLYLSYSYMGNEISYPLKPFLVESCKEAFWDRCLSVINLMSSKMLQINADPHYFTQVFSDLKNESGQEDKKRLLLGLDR

| Compound | IC50 |
| --- | --- |
| CCOC(=O)c1cccc(Nc2cc3nc(SC4CCNCC4)ccc3cn2)c1 | < 10 nM |
| CN1CCC(N(CC(=O)O)c2ccc3cnc(Nc4cccc(S(N)(=O)=O)c4)cc3n2)CC1 | < 10 nM |
| CN1CCC([C@@](C)(O)c2ccc3cnc(Nc4cccc(C(N)=O)c4)cc3n2)CC1 | < 10 nM |
| CN1CCC(S(=O)(=O)c2ccc3cnc(Nc4ccc(N5CCCS5(=O)=O)cc4)cc3n2)CC1 | < 10 nM |

The next lines start with the values.

| IC50 | Compound |
| --- | --- |
| < 10 nM | CN1CCC(C(=O)c2ccc3cnc(Nc4ccc(-n5cccn5)cc4F)cc3n2)CC1 |
| < 10 nM | CN1CCC([C@@](C)(O)c2ccc3cnc(Nc4ccc(S(C)(=O)=O)cc4)cc3n2)CC1 |
